The record followed here is patent publication US11945806B2, “Stabilization of amyloidogenic immunoglobulin light chains” (The Scripps Research Institute, priority 2019, dated 2024).

The assay addresses WIL-FL (Homo sapiens, UniProt P01721). As to the kind of experiment: Unlabeled LC Protease Sensitivity Assay (proteinase K). It is filed as biochemical. As to conditions: small molecule 10 μM, WIL-FL 5 μM, proteinase K 50 nM, 2 hours at 37° C. The method, then: Unlabeled LC Protease Sensitivity Assay. WIL-FL (5 μM) in phosphate-buffered saline (PBS, pH 7.4)+0.02% Pluronic F-127 was incubated with proteinase K (50 nM) with small molecule (10 μM) in 1% DMSO vehicle, or vehicle alone. After 2 hours at 37° C., reactions were quenched with 2 mM phenylmethyl sulfonyl fluoride in methanol and centrifuged at 14,000 rpm for 2 minutes. Remaining WIL-FL was quantified by injecting 10 μL of the supernatant into a Waters Acquity H-Class Bio-UPLC (ultra performance liquid chromatography) instrument equipped with a BEH200 analytical size-exclusion column (1.7 μm, 4.6×150 mm) under isocratic conditions (0.2 mL/min, PBS+1 mM EDTA, 2400 psi backpressure, 15 min), monitoring absorbance at 280 nm. Activity of each compound is given as fold protection from protease=(A_compound−A_vehicle)/(A_no_protease−A_vehicle), where each “A” corresponds to peak integration of the respective treatment.
On to `CCN(CC)c1ccc2c(C)c(CCN3C(=O)NC4(CCN(c5ncnc6c5cnn6C)CC4)C3=O)c(=O)oc2c1` [Compound 216, 3-(2-(7-(diethylamino)-4-methyl-2-oxo-2H-chromen-3-yl)ethyl)-8-(1-methyl-1H-pyrazolo[3,4-d]pyrimidin-4-yl)-1,3,8-triazaspiro[4.5]decane-2,4-dione], for which the “Protection (fold protection of LC from protease)” value is on record as “C (C ≥ 0.6)”.
The result for `CCN(CC)c1ccc2c(C)c(CCNC(=O)NCc3cccc(S(N)(=O)=O)c3)c(=O)oc2c1` [Compound 299, 3-((3-(2-(7-(diethylamino)-4-methyl-2-oxo-2H-chromen-3-yl)ethyl)ureido)methyl)benzenesulfonamide] reads “B (3 ≤ B < 0.6)”.
The entry for `CCN(CC)c1ccc2c(C)c(CCC(=O)O)c(=O)oc2c1` [Compound 62, 3-(7-(diethylamino)-4-methyl-2-oxo-2H-chromen-3-yl)propanoic acid] is “A (A < 0.3))”.
The result for `Cc1cc(=O)oc2cc(C(=O)Nc3ccc4ccccc4c3)ccc12` [Compound 227, 4-methyl-N-(naphthalen-2-yl)-2-oxo-2H-chromene-7-carboxamide] reads “A (A < 0.3))”; that for `CCN(CC)c1ccc2c(C)c(CCOC(=O)N3CCN(c4cnccn4)CC3)c(=O)oc2c1` [Compound 109, 2-(7-(diethylamino)-4-methyl-2-oxo-2H-chromen-3-yl)ethyl 4-(pyrazin-2-yl)piperazine-1-carboxylate], “A (A < 0.3))”.
On to `CCN(CC)c1ccc2c(C)c(CCOC(=O)NCc3ccc4nc[nH]c4c3)c(=O)oc2c1` [Compound 142, 2-(7-(diethylamino)-4-methyl-2-oxo-2H-chromen-3-yl)ethyl ((1H-benzo[d]imidazol-6-yl)methyl)carbamate], for which the “Protection (fold protection of LC from protease)” value is given as “C (C ≥ 0.6)”.
The entry for `C#CCN(CC(=C)C)c1ccc2c(C)cc(=O)oc2c1` [Compound 261, 4-methyl-7-((2-methylallyl)(prop-2-yn-1-yl)amino)-2H-chromen-2-one] is “A (A < 0.3))”.
The result for `CCCNc1ccc2c(C)cc(=O)oc2c1` [Compound 242, 4-methyl-7-(propylamino)-2H-chromen-2-one] reads “A (A < 0.3))”.
The result for `Cc1cc(=O)oc2cc(OCCN)ccc12` [Compound 34, 7-(2-aminoethoxy)-4-methyl-2H-chromen-2-one] reads “A (A < 0.3))”; that for `Cc1cc(=O)oc2cc(N(C)CCCF)ccc12` [Compound 258, 7-((3-fluoropropyl)(methyl)amino)-4-methyl-2H-chromen-2-one], “A (A < 0.3))”.
For `Cc1cc(=O)oc2cc(C(=O)Nc3ccc4[nH]cnc4c3)ccc12` [Compound 238, N-(1H-benzo[d]imidazol-6-yl)-4-methyl-2-oxo-2H-chromene-7-carboxamide], the “Protection (fold protection of LC from protease)” value is given as “A (A < 0.3))”.
The result for `C=C(C)CNc1ccc2c(C)cc(=O)oc2c1` [Compound 244, 4-methyl-7-((2-methylallyl)amino)-2H-chromen-2-one] reads “A (A < 0.3))”; that for `CCN(CC)c1ccc2c(C)c(CCNC(=O)NCc3cccc(C(N)=O)c3)c(=O)oc2c1` [Compound 298, 3-((3-(2-(7-(diethylamino)-4-methyl-2-oxo-2H-chromen-3-yl)ethyl)ureido)methyl)benzamide], “B (3 ≤ B < 0.6)”; that for `Cc1cc(=O)oc2cc(NCCCc3ccccc3)ccc12` [Compound 30, 4-methyl-7-((3-phenylpropyl)amino)-2H-chromen-2-one], “A (A < 0.3))”.
The entry for `CCN(CC)c1ccc2c(C)c(CCOC(=O)NCCCN(C)C)c(=O)oc2c1` [Compound 133, 2-(7-(diethylamino)-4-methyl-2-oxo-2H-chromen-3-yl)ethyl (3-(dimethylamino)propyl)carbamate] is “B (3 ≤ B < 0.6)”; for `CCN(CC)c1ccc2c(C)c(CC(=O)NCCN(C)C)c(=O)oc2c1` [Compound 58, 2-(7-(diethylamino)-4-methyl-2-oxo-2H-chromen-3-yl)-N-(2-(dimethylamino)ethyl)acetamide] it is “A (A < 0.3))”.
Take `CCN(CC)c1ccc2c(C)c(CCNC(=O)NCc3ccncc3)c(=O)oc2c1` [Compound 277, 1-(2-(7-(diethylamino)-4-methyl-2-oxo-2H-chromen-3-yl)ethyl)-3-(pyridin-4-ylmethyl)urea]: the “Protection (fold protection of LC from protease)” value is on record as “B (3 ≤ B < 0.6)”.
The entry for `CCN(CC)c1ccc2c(C)c(CCNC(=O)OCc3cccnc3)c(=O)oc2c1` [Compound 100, Pyridin-3-ylmethyl (2-(7-(diethylamino)-4-methyl-2-oxo-2H-chromen-3-yl)ethyl)carbamate] is “A (A < 0.3))”; for `CCN(CC)c1ccc2c(C)c(CCOC(=O)NCc3ccc(C(F)(F)F)nc3)c(=O)oc2c1` [Compound 101, 2-(7-(diethylamino)-4-methyl-2-oxo-2H-chromen-3-yl)ethyl ((6-(trifluoromethyl)pyridin-3-yl)methyl)carbamate] it is “A (A < 0.3))”; for `CCN(CC)c1ccc2c(C)c(CCOC(=O)NCc3cccc(-c4cnccn4)c3)c(=O)oc2c1` [Compound 157, 2-(7-(diethylamino)-4-methyl-2-oxo-2H-chromen-3-yl)ethyl (3-(pyrazin-2-yl)benzyl)carbamate] it is “C (C ≥ 0.6)”.
In the case of `CCN(CC)c1ccc2c(C)c(CCN3C(=O)NC4(CCNC4)C3=O)c(=O)oc2c1` (stereo not shown) [Compound 179, 3-(2-(7-(diethylamino)-4-methyl-2-oxo-2H-chromen-3-yl)ethyl)-1,3,7-triazaspiro[4.4]nonane-2,4-dione], the “Protection (fold protection of LC from protease)” value is listed as “B (3 ≤ B < 0.6)”.
For `CCN(CC)c1ccc2c(C)c(CCOC(=O)NCc3cccc(C(=N)NO)c3)c(=O)oc2c1` [Compound 170, 2-(7-(diethylamino)-4-methyl-2-oxo-2H-chromen-3-yl)ethyl (3-(N-hydroxycarbamimidoyl)benzyl)carbamate], the “Protection (fold protection of LC from protease)” value was “C (C ≥ 0.6)”.
With `CCN(CC)c1ccc2c(C)c(CCOC(=O)NCc3cccc(CCC(=O)O)c3)c(=O)oc2c1` [Compound 309, 3-(3-((((2-(7-(diethylamino)-4-methyl-2-oxo-2H-chromen-3-yl)ethoxy)carbonyl)amino)methyl)phenyl)propanoic acid], the “Protection (fold protection of LC from protease)” value is “A (A < 0.3))”.
The entry for `CCN(CC)c1ccc2c(C)c(CCN3C(=O)NC4(CCN(c5ccc(C(F)(F)F)cn5)C4)C3=O)c(=O)oc2c1` (stereo not shown) [Compound 196, 3-(2-(7-(diethylamino)-4-methyl-2-oxo-2H-chromen-3-yl)ethyl)-7-(5-(trifluoromethyl)pyridin-2-yl)-1,3,7-triazaspiro[4.4]nonane-2,4-dione] is “A (A < 0.3))”.
The result for `CCN(CC)c1ccc2c(C)c(CCOC(=O)NCc3cncc(NC(C)=O)c3)c(=O)oc2c1` [Compound 128, 2-(7-(diethylamino)-4-methyl-2-oxo-2H-chromen-3-yl)ethyl ((5-acetamidopyridin-3-yl)methyl)carbamate] reads “B (3 ≤ B < 0.6)”; that for `C#CCNC(=O)c1ccc2c(C)cc(=O)oc2c1` [Compound 267, 4-methyl-2-oxo-N-(prop-2-yn-1-yl)-2H-chromene-7-carboxamide], “A (A < 0.3))”.
With `Cc1cc(=O)oc2cc(C(=O)Nc3ccnc4ccccc34)ccc12` [Compound 234, 4-methyl-2-oxo-N-(quinolin-4-yl)-2H-chromene-7-carboxamide], the “Protection (fold protection of LC from protease)” value is reported as “A (A < 0.3))”.
The entry for `CCN(CC)c1ccc2c(C)c(CCC(=O)NCCc3ccccc3)c(=O)oc2c1` [Compound 64, 3-(7-(diethylamino)-4-methyl-2-oxo-2H-chromen-3-yl)-N-phenethylpropanamide] is “A (A < 0.3))”; for `CCN(CC)c1ccc2c(C)c(CCOC(=O)NCCNc3ccccn3)c(=O)oc2c1` [Compound 132, 2-(7-(diethylamino)-4-methyl-2-oxo-2H-chromen-3-yl)ethyl (2-(pyridin-2-ylamino)ethyl)carbamate] it is “C (C ≥ 0.6)”.
The result for `CCC(C)Oc1ccc2c(C)cc(=O)oc2c1` (stereo not shown) [Compound 32, 7-(sec-butoxy)-4-methyl-2H-chromen-2-one] reads “A (A < 0.3))”; that for `CCCN(C)c1ccc2c(C)cc(=O)oc2c1` [Compound 253, 4-methyl-7-(methyl(propyl)amino)-2H-chromen-2-one], “A (A < 0.3))”; that for `Cc1cc(=O)oc2cc(OCCC(C)c3ccccc3)ccc12` (stereo not shown) [Compound 46, 4-methyl-7-(3-phenylbutoxy)-2H-chromen-2-one], “A (A < 0.3))”.
For the compound `CCN(CC#N)c1ccc2c(C)cc(=O)oc2c1` [Compound 272, 2-(ethyl(4-methyl-2-oxo-2H-chromen-7-yl)amino)acetonitrile], the “Protection (fold protection of LC from protease)” value is given as “A (A < 0.3))”.
The entry for `CCN(CC)c1ccc2c(C)c(CC(=O)NC)c(=O)oc2c1` [Compound 60, 2-(7-(diethylamino)-4-methyl-2-oxo-2H-chromen-3-yl)-N-methylacetamide] is “A (A < 0.3))”.
